Patent US9688710B2, “Inhibitors of sodium glucose cotransporter 1” (LEXICON PHARMACEUTICALS, INC., priority 2012, dated 2017)

Assays:
[1] = molecular target: Human sodium/glucose co-transporter type 2 (SGLT2) (Homo sapiens (Human), UniProt P31639); assay: In vitro human SGLT2 inhibition assay (14C-AMG uptake); format: cell-based; set-up: key to SGLT2 (human SGLT2 IC50): ***: a value less than 0.01 μM; **: a value less than 0.1 μM; *: a value less than 1 μM; —: a value not measured or exceeding μM; conditions: HEK293 cells expressing human HA-SGLT2, 14C-AMG uptake
How it was run: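 HEK293 cells stably expressing HA-tagged human SGLT2, seeded overnight, washed into Na+-containing HEPES/Tris uptake buffer with 1 mg/mL BSA, pH 7.3. Compound added, then 14C-AMG (100 nCi); 1-2 h at 37 °C, 5% CO2. Washed cells counted by scintillation for 14C-AMG uptake.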

[2] = molecular target: Human sodium/glucose co-transporter type 1 (SGLT1) (Homo sapiens (Human), UniProt P13866); assay: In vitro human SGLT1 inhibition assay (14C-AMG uptake); format: cell-based; set-up: key to SGLT1 (human SGLT1 IC50): ***: a value less than 0.01 μM; **: a value less than 0.1 μM; *: a value less than 1 μM; —: a value not measured or exceeding μM; conditions: HEK293 cells expressing human HA-SGLT1, 14C-AMG uptake
How it was run: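 HEK293 cells stably expressing human HA-tagged SGLT1 (30,000/well, overnight) were washed into Na+-containing uptake buffer (140 mM NaCl, HEPES/Tris, 1 mg/mL BSA, pH 7.3). Cells then received compound plus 100 nCi 14C-AMG for 1–2 h at 37 °C; after washing, AMG uptake was quantified by scintillation counting.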

Human sodium/glucose co-transporter type 1 (SGLT1), sequence (P13866 whole entry): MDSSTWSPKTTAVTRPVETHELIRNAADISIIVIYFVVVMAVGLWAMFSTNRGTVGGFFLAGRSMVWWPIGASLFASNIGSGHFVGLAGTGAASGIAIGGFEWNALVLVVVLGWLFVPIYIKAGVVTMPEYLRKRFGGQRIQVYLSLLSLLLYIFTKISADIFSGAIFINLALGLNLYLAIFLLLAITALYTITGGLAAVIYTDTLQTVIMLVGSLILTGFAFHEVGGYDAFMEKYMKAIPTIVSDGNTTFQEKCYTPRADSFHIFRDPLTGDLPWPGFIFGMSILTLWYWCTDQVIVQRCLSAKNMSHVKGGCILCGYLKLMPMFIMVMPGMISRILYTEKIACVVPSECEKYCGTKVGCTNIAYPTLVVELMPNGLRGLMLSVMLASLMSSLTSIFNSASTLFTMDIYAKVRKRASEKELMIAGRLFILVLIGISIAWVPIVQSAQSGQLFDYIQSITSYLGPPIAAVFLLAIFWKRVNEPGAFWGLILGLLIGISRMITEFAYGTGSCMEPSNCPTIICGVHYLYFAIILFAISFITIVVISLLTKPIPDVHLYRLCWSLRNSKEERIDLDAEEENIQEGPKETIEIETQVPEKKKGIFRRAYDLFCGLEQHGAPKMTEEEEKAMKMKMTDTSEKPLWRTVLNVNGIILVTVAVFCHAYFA
Human sodium/glucose co-transporter type 2 (SGLT2), sequence (P31639 whole entry): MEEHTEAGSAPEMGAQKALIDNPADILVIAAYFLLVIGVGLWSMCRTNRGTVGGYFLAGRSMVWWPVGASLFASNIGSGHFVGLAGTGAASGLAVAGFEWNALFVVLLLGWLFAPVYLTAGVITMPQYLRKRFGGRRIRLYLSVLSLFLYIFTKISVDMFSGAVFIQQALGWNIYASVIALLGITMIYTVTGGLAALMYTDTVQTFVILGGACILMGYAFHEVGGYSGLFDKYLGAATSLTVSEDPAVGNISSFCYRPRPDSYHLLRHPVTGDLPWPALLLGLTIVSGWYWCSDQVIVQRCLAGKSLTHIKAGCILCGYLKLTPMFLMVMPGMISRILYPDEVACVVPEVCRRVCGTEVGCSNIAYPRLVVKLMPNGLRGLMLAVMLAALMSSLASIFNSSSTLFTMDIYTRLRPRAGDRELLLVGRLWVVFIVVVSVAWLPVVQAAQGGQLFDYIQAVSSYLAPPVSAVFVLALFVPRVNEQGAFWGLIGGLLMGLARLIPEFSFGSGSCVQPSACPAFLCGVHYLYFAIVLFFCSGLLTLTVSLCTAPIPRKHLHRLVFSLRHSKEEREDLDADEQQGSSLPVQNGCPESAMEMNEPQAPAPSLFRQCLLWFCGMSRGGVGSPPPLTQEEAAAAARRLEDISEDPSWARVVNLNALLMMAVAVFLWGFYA

| IC50 [1] | IC50 [2] | SGLT2 (human SGLT2 IC50) [1] | SGLT1 (human SGLT1 IC50) [2] | Compound |
| --- | --- | --- | --- | --- |
| < 10 nM | < 10 nM |  |  | CS[C@H]1OC(c2ccc(C)c(Cc3ccc(OCCNC(=O)N4CCN(C)CC4)cc3)c2)[C@H](O)[C@@H](O)[C@@H]1O (stereo partly drawn) [4-methyl-N-(2-(4-(2-methyl-5-((3R,4R,5S,6R)-3,4,5-trihydroxy-6-(methylthio)tetrahydro-2H-pyran-2-yl)benzyl)phenoxy)ethyl)piperazine-1-carboxamide] |
| < 10 nM | < 100 nM |  |  | CS[C@H]1O[C@@H](c2ccc(C)c(Cc3ccc(CCCCNC(=O)N4CCN(C)CC4)cc3)c2)[C@H](O)[C@@H](O)[C@@H]1O [4-methyl-N-(4-(4-(2-methyl-5-((2S,3R,4R,5S,6R)-3,4,5-trihydroxy-6-(methylthio)tetrahydro-2H-pyran-2-yl)benzyl)phenyl)butyl)piperazine-1-carboxamide] |
| < 10 nM | < 100 nM |  |  | CS[C@H]1O[C@@H](c2ccc(C)c(Cc3ccc(CCCCC(=O)N4CCN(C)CC4)cc3)c2)[C@H](O)[C@@H](O)[C@@H]1O [5-(4-(2-methyl-5-((2S,3R,4R,5S,6R)-3,4,5-trihydroxy-6-(methylthio)tetrahydro-2H-pyran-2-yl)benzyl)phenyl)-1-(4-methylpiperazin-1-yl)pentan-1-one] |
| < 100 nM | < 100 nM |  |  | CS[C@H]1O[C@@H](c2ccc(C)c(Cc3ccc(OCC(O)CO)cc3)c2)[C@H](O)[C@@H](O)[C@@H]1O (stereo partly drawn) [(2S,3R,4R,5S,6R)-2-(3-(4-(2,3-dihydroxypropoxy)benzyl)-4-methylphenyl)-6-(methylthio)tetrahydro-2H-pyran-3,4,5-triol] |
| < 10 nM | < 10 nM |  |  | COCCOCCOc1ccc(Cc2cc([C@@H]3O[C@H](SC)[C@@H](O)[C@H](O)[C@H]3O)ccc2C)cc1 [(2S,3R,4R,5S,6R)-2-(3-(4-(2-(2-methoxyethoxy)ethoxy)benzyl)-4-methylphenyl)-6-(methylthio)tetrahydro-2H-pyran-3,4,5-triol] |
| < 10 nM | < 10 nM |  |  | CS[C@H]1O[C@@H](c2ccc(C)c(Cc3ccc(OCCNC(C)(C)CO)cc3)c2)[C@H](O)[C@@H](O)[C@@H]1O [(2S,3R,4R,5S,6R)-2-(3-(4-(2-((1-hydroxy-2-methylpropan-2-yl)amino)ethoxy)benzyl)-4-methylphenyl)-6-(methylthio)tetrahydro-2H-pyran-3,4,5-triol] |
| < 10 nM | < 100 nM |  |  | CS[C@H]1O[C@@H](c2ccc(Cl)c(Cc3ccc(OCCN)cc3)c2)[C@H](O)[C@@H](O)[C@@H]1O [(2S,3R,4R,5S,6R)-2-(3-(4-(2-aminoethoxy)benzyl)-4-chlorophenyl-6-(methylthio)tetrahydro-2H-pyran-3,4,5-triol] |
| < 10 nM | < 10 nM |  |  | CS[C@H]1O[C@@H](c2ccc(C)c(Cc3ccc(OCCCNCC(C)(C)CN(C)C)cc3)c2)[C@H](O)[C@@H](O)[C@@H]1O [(2S,3R,4R,5S,6R)-2-(3-(4-(3-((3-(dimethylamino)-2,2-dimethylpropyl)amino)propoxy)benzyl)-4-methylphenyl)-6-(methylthio)tetrahydro-2H-pyran-3,4,5-triol] |
| < 10 nM | < 10 nM |  |  | CS[C@H]1O[C@@H](c2ccc(C)c(Cc3ccc(CCCCNC(CO)(CO)CO)cc3)c2)[C@H](O)[C@@H](O)[C@@H]1O [(2S,3R,4R,5S,6R)-2-(3-(4-(4-((1,3-dihydroxy-2-(hydroxymethyl)propan-2-yl)amino)butyl)benzyl)-4-methylphenyl)-6-(methylthio)tetrahydro-2H-pyran-3,4,5-triol] |
| < 10 nM | < 100 nM |  |  | CS[C@H]1O[C@@H](c2ccc(C)c(Cc3ccc(CCCCNC(C)(C)CO)cc3)c2)[C@H](O)[C@@H](O)[C@@H]1O [(2S,3R,4R,5S,6R)-2-(3-(4-(4-((1-hydroxy-2-methylpropan-2-yl)amino)butyl)benzyl)-4-methylphenyl)-6-(methylthio)tetrahydro-2H-pyran-3,4,5-triol] |
| < 10 nM | < 100 nM |  |  | CS[C@H]1O[C@@H](c2ccc(C)c(Cc3ccc(CCCCNCC(O)CO)cc3)c2)[C@H](O)[C@@H](O)[C@@H]1O (stereo partly drawn) [(2S,3R,4R,5S,6R)-2-(3-(4-(4-((2,3-dihydroxypropyl)amino)butyl)benzyl)-4-methylphenyl)-6-(methylthio)tetrahydro-2H-pyran-3,4,5-triol] |
| < 10 nM | < 10 nM |  |  | CS[C@H]1O[C@@H](c2ccc(C)c(Cc3ccc(CCCCN(CC(O)CO)CC(O)CO)cc3)c2)[C@H](O)[C@@H](O)[C@@H]1O (stereo partly drawn) [(2S,3R,4R,5S,6R)-2-(3-(4-(4-(bis(2,3-dihydroxypropyl)amino)butyl)benzyl)-4-methylphenyl)-6-(methylthio)tetrahydro-2H-pyran-3,4,5-triol] |
| < 10 nM | < 10 nM |  |  | CCN(CC)CCCCc1ccc(Cc2cc([C@@H]3O[C@H](SC)[C@@H](O)[C@H](O)[C@H]3O)ccc2C)cc1 [(2S,3R,4R,5S,6R)-2-(3-(4-(4-(diethylamino)butyl)benzyl)-4-methylphenyl)-6-(methylthio)tetrahydro-2H-pyran-3,4,5-triol] |
| < 10 nM | < 10 nM |  |  | CS[C@H]1O[C@@H](c2ccc(C)c(Cc3ccc(CCCCN)cc3)c2)[C@H](O)[C@@H](O)[C@@H]1O [(2S,3R,4R,5S,6R)-2-(3-(4-(4-aminobutyl)benzyl)-4-methylphenyl)-6-(methylthio)tetrahydro-2H-pyran-3,4,5-triol] |
| < 10 nM | < 100 nM |  |  | CS[C@H]1O[C@@H](c2ccc(C)c(Cc3ccc(CCCCCNCc4ccccc4)cc3)c2)[C@H](O)[C@@H](O)[C@@H]1O [(2S,3R,4R,5S,6R)-2-(3-(4-(5-(benzylamino)pentyl)benzyl)-4-methylphenyl)-6-(methylthio)tetrahydro-2H-pyran-3,4,5-triol] |
| < 10 nM | < 100 nM |  |  | CS[C@H]1O[C@@H](c2ccc(C)c(Cc3ccc(CCCCCN(C[C@H](O)CO)C[C@H](O)CO)cc3)c2)[C@H](O)[C@@H](O)[C@@H]1O [(2S,3R,4R,5S,6R)-2-(3-(4-(5-(bis((S)-2,3-dihydroxypropyl)amino)pentyl)benzyl)-4-methylphenyl)-6-(methylthio)tetrahydro-2H-pyran-3,4,5-triol] |
| < 10 nM | < 100 nM |  |  | CS[C@H]1O[C@@H](c2ccc(C)c(Cc3ccc(CCCCCN)cc3)c2)[C@H](O)[C@@H](O)[C@@H]1O [(2S,3R,4R,5S,6R)-2-(3-(4-(5-aminopentyl)benzyl)-4-methylphenyl)-6-(methylthio)tetrahydro-2H-pyran-3,4,5-triol] |
| < 10 nM | < 100 nM |  |  | CS[C@H]1O[C@@H](c2ccc(C)c(Cc3ccc(Cl)cc3)c2)[C@H](O)[C@@H](O)[C@@H]1O [(2S,3R,4R,5S,6R)-2-(3-(4-chlorobenzyl)-4-methylphenyl)-6-(methylthio)tetrahydro-2H-pyran-3,4,5-triol] |
| < 10 nM | < 100 nM |  |  | CCOc1ccc(Cc2cc([C@@H]3O[C@H](SC)[C@@H](O)[C@H](O)[C@H]3O)ccc2C)cc1 [(2S,3R,4R,5S,6R)-2-(3-(4-ethoxybenzyl)-4-methylphenyl)-6-(methylthio)tetrahydro-2H-pyran-3,4,5-triol] |
|  |  | — | — | COc1ccc(Cc2cc([C@@H]3O[C@H](SC)[C@@H](O)[C@H](O)[C@H]3O)ccc2OC(F)(F)F)cc1 [(2S,3R,4R,5S,6R)-2-(3-(4-methoxybenzyl)-4-(trifluoromethoxy)phenyl)-6-(methylthio)tetrahydro-2H-pyran-3,4,5-triol] |
